Data from patent publication US20100311714A1, “1H-IMIDAZO[4,5-c]QUINOLINONE COMPOUNDS” (priority 2009, published 2010).

What was measured:
[1] = test system: PKB Ser473 phosphorylation in Rat1-myr-HA-p110 delta cells; assay: Reverse protein array, PKB Ser473 phosphorylation in Rat1-myr-HA-p110 delta cells; format: cell-based; settings: Rattus norvegicus, 0.5 h, 30 minutes compound incubation, read-out: p-PKB/IC50_delta
[2] = test system: PKB Ser473 phosphorylation in Rat1-myr-HA-p110 alpha cells; assay: Reverse protein array, PKB Ser473 phosphorylation in Rat1-myr-HA-p110 alpha cells; format: cell-based; settings: Rattus norvegicus, 0.5 h, 30 minutes compound incubation, read-out: p-PKB/IC50_alpha

Row | SMILES | IC50 [1] [nM] | IC50 [2] [nM]
1 | COCCOc1cc(-c2ccc3ncc4c(c3c2)n(-c2ccc(OC)nc2OC)c(=O)n4C)cnc1C [Example 8.9, 1-(2,6-Dimethoxy-pyridin-3-yl)-8-[5-(2-methoxy-ethoxy)-6-methyl-pyridin-3-yl]-3-methyl-1,3-dihydro-imidazo[4,5-c]quinolin-2-one] | 74.9 | 24.9
2 | COCCN(C)c1ccc(-n2c(=O)n(C)c3cnc4ccc(-c5cnc(CO)c(OC)c5)cc4c32)c(C)n1 [Example 15.9, 8-(6-Hydroxymethyl-5-methoxy-pyridin-3-yl)-1-{6-[(2-methoxy-ethyl)-methyl-amino]-2-methyl-pyridin-3-yl}-3-methyl-1,3-dihydro-imidazo[4,5-c]quinolin-2-one] | 38.8 | 10.8
3 | CNc1ccc(-c2ccc3ncc4c(c3c2)n(-c2ccc(N3CCCC3)nc2C)c(=O)n4C)cn1 [Example 25.1, 3-Methyl-8-(6-methylamino-pyridin-3-yl)-1-(2-methyl-6-pyrrolidin-1-yl-pyridin-3-yl)-1,3-dihydro-imidazo[4,5-c]quinolin-2-one] | 26 | 11.5
4 | COc1ccc(-c2ccc3ncc4c(c3c2)n(-c2cccnc2)c(=O)n4C)cc1OC [Example 5.2, 8-(3,4-Dimethoxy-phenyl)-3-methyl-1-pyridin-3-yl-1,3-dihydro-imidazo[4,5-c]quinolin-2-one] | 74.3 | 18.1
5 | COCC(=O)Nc1ccc(-n2c(=O)n(C)c3cnc4ccc(-c5cncc(OC(C)C)c5)cc4c32)c(C)n1 [Example 20.5, N-{5-[8-(5-Isopropoxy-pyridin-3-yl)-3-methyl-2-oxo-2,3-dihydro-imidazo[4,5-c]quinolin-1-yl]-6-methyl-pyridin-2-yl}-2-methoxy-acetamide] | 352 | 90.2
6 | CCOc1ccc(-c2ccc3ncc4c(c3c2)n(-c2ccc(NC(=O)COC)nc2C)c(=O)n4C)cn1 [Example 20.2, N-{5-[8-(6-Ethoxy-pyridin-3-yl)-3-methyl-2-oxo-2,3-dihydro-imidazo[4,5-c]quinolin-1-yl]-6-methyl-pyridin-2-yl}-2-methoxy-acetamide] | 326 | 50
7 | CCOc1ccc(-c2ccc3ncc4c(c3c2)n(-c2cccnc2OC)c(=O)n4C)cn1 [Example 1.5, 8-(6-Ethoxy-pyridin-3-yl)-1-(2-methoxy-pyridin-3-yl)-3-methyl-1,3-dihydro-imidazo[4,5-c]quinolin-2-one] | 59.6 | 9.35
8 | CCOc1cc(-c2ccc3ncc4c(c3c2)n(-c2cccnc2C)c(=O)n4C)cnc1C [Example 2.22, 8-(5-Ethoxy-6-methyl-pyridin-3-yl)-3-methyl-1-(2-methyl-pyridin-3-yl)-1,3-dihydro-imidazo[4,5-c]quinolin-2-one] | 75.7 | 11
9 | Cc1nc(N2CC(F)(F)C2)ccc1-n1c(=O)n(C)c2cnc3ccc(-c4cncc(C(C)(C)O)c4)cc3c21 [Example 24.2, 1-[6-(3,3-Difluoro-azetidin-1-yl)-2-methyl-pyridin-3-yl]-8-[5-(1-hydroxy-1-methyl-ethyl)-pyridin-3-yl]-3-methyl-1,3-dihydro-imidazo[4,5-c]quinolin-2-one] | 30 | 17.5
10 | COc1ccc(-c2ccc3ncc4c(c3c2)n(-c2cccnc2)c(=O)n4C)cn1 [Example 5.4, 8-(6-Methoxy-pyridin-3-yl)-3-methyl-1-pyridin-3-yl-1,3-dihydro-imidazo[4,5-c]quinolin-2-one] | 223 | 92.4
11 | Cc1cccnc1-n1c(=O)n(C)c2cnc3ccc(-c4cnc5ccccc5c4)cc3c21 [Example 3.8, 3-Methyl-1-(3-methyl-pyridin-2-yl)-8-quinolin-3-yl-1,3-dihydro-imidazo[4,5-c]quinolin-2-one] |  | 54.9
12 | COc1ccc(-c2ccc3ncc4c(c3c2)n(-c2ncccc2C)c(=O)n4C)cn1 [Example 3.13, 8-(6-Methoxy-pyridin-3-yl)-3-methyl-1-(3-methyl-pyridin-2-yl)-1,3-dihydro-imidazo[4,5-c]quinolin-2-one] |  | 308
13 | CCOc1ccc(-c2ccc3ncc4c(c3c2)n(-c2cncc(C)c2)c(=O)n4C)cn1 [Example 17.1, 8-(6-Ethoxy-pyridin-3-yl)-3-methyl-1-(5-methyl-pyridin-3-yl)-1,3-dihydro-imidazo[4,5-c]quinolin-2-one] | 412 | 53.4
14 | COCCOc1ccc(-n2c(=O)n(C)c3cnc4ccc(-c5cnc(COC)c(OC)c5)cc4c32)c(C)n1 [Example 22.3, 1-[6-(2-Methoxy-ethoxy)-2-methyl-pyridin-3-yl]-8-(5-methoxy-6-methoxymethyl-pyridin-3-yl)-3-methyl-1,3-dihydro-imidazo[4,5-c]quinolin-2-one] | 210 | 24.2
15 | Cc1ccc(-n2c(=O)n(C)c3cnc4ccc(-c5cnc6c(ccn6C)c5)cc4c32)c(C)n1 [Example 14.7, 1-(2,6-Dimethyl-pyridin-3-yl)-3-methyl-8-(1-methyl-1H-pyrrolo[2,3-b]pyridin-5-yl)-1,3-dihydro-imidazo[4,5-c]quinolin-2-one] | 45.4 | 11.5
16 | COc1ccc(-c2ccc3ncc4c(c3c2)n(-c2cccnc2OC)c(=O)n4C)cn1 [Example 1.1, 1-(2-Methoxy-pyridin-3-yl)-8-(6-methoxy-pyridin-3-yl)-3-methyl-1,3-dihydro-imidazo[4,5-c]quinolin-2-one] | 53.3 | 42.9
17 | Cc1nc(N2CCC(O)C2)ccc1-n1c(=O)n(C)c2cnc3ccc(-c4cncc(OC(C)C)c4)cc3c21 (stereo not drawn) [Example 27.1, 1-[6-(3-Hydroxy-pyrrolidin-1-yl)-2-methyl-pyridin-3-yl]-8-(5-isopropoxy-pyridin-3-yl)-3-methyl-1,3-dihydro-imidazo[4,5-c]quinolin-2-one] | 64.5 | 41.1
18 | Cc1nc(N2CC(F)(F)C(F)(F)C2)ccc1-n1c(=O)n(C)c2cnc3ccc(-c4cncc(C(C)(C)O)c4)cc3c21 [Example 35.1, 8-[5-(1-Hydroxy-1-methyl-ethyl)-pyridin-3-yl]-3-methyl-1-[2-methyl-6-(3,3,4,4-tetrafluoro-pyrrolidin-1-yl)-pyridin-3-yl]-1,3-dihydro-imidazo[4,5-c]quinolin-2-one] | 25.5 | 14.6

Now those with a lower IC50 [2], led by results:

Row | IC50 [1] [nM] | IC50 [2] [nM] | SMILES
19 | 83.9 | 6.4 | COCCOc1ccc(-n2c(=O)n(C)c3cnc4ccc(-c5cncc(N6CCC6)c5)cc4c32)c(C)n1 [Example 22.2, 8-(5-Azetidin-1-yl-pyridin-3-yl)-1-[6-(2-methoxy-ethoxy)-2-methyl-pyridin-3-yl]-3-methyl-1,3-dihydro-imidazo[4,5-c]quinolin-2-one]
20 | 15.5 | 6.94 | COc1ncccc1-n1c(=O)n(C)c2cnc3ccc(-c4cnc(N)c(C(F)(F)F)c4)cc3c21 [Example 1.3, 8-(6-Amino-5-trifluoromethyl-pyridin-3-yl)-1-(2-methoxy-pyridin-3-yl)-3-methyl-1,3-dihydro-imidazo[4,5-c]quinolin-2-one]
21 | 197 | 5.6 | CNc1ccc(-c2ccc3ncc4c(c3c2)n(-c2ccc(NC(=O)COC)nc2C)c(=O)n4C)cn1 [Example 20.4, 2-Methoxy-N-{6-methyl-5-[3-methyl-8-(6-methylamino-pyridin-3-yl)-2-oxo-2,3-dihydro-imidazo[4,5-c]quinolin-1-yl]-pyridin-2-yl}-acetamide]
22 | 218 | 6.6 | CNc1ncc(-c2ccc3ncc4c(c3c2)n(-c2ccc(NC(=O)COC)nc2C)c(=O)n4C)cn1 [Example 20.3, 2-Methoxy-N-{6-methyl-5-[3-methyl-8-(2-methylamino-pyrimidin-5-yl)-2-oxo-2,3-dihydro-imidazo[4,5-c]quinolin-1-yl]-pyridin-2-yl}-acetamide]
23 | 28.2 | 5.2 | CNc1cc(-c2ccc3ncc4c(c3c2)n(-c2ccc(C(F)(F)F)nc2C)c(=O)n4C)cnc1CO [Example 33.2, 8-(6-Hydroxymethyl-5-methylamino-pyridin-3-yl)-3-methyl-1-(2-methyl-6-trifluoromethyl-pyridin-3-yl)-1,3-dihydro-imidazo[4,5-c]quinolin-2-one]
24 | 31.3 | 7.2 | CNc1ccc(-c2ccc3ncc4c(c3c2)n(-c2ccc(N(C)CCOC)nc2C)c(=O)n4C)cn1 [Example 15.4, 1-{6-[(2-Methoxy-ethyl)-methyl-amino]-2-methyl-pyridin-3-yl}-3-methyl-8-(6-methylamino-pyridin-3-yl)-1,3-dihydro-imidazo[4,5-c]quinolin-2-one]
25 | 13.3 | < 4.57 | COCCN(C)c1ccc(-n2c(=O)n(C)c3cnc4ccc(-c5cnc(N)c(C(F)(F)F)c5)cc4c32)c(C)n1 [Example 15.1, 8-(6-Amino-5-trifluoromethyl-pyridin-3-yl)-1-{6-[(2-methoxy-ethyl)-methyl-amino]-2-methyl-pyridin-3-yl}-3-methyl-1,3-dihydro-imidazo[4,5-c]quinolin-2-one]
26 | 29.4 | 8.68 | CNc1ccc(-c2ccc3ncc4c(c3c2)n(-c2cccnc2OC)c(=O)n4C)cn1 [Example 1.4, 1-(2-Methoxy-pyridin-3-yl)-3-methyl-8-(6-methylamino-pyridin-3-yl)-1,3-dihydro-imidazo[4,5-c]quinolin-2-one]
27 | 8.1 | 5.9 | CCNc1cc(-c2ccc3ncc4c(c3c2)n(-c2ccc(N3CC(F)(F)C3)nc2C)c(=O)n4C)cnc1CO [Example 24.3, 1-[6-(3,3-Difluoro-azetidin-1-yl)-2-methyl-pyridin-3-yl]-8-(5-ethylamino-6-hydroxymethyl-pyridin-3-yl)-3-methyl-1,3-dihydro-imidazo[4,5-c]quinolin-2-one]
28 | 61.7 | 7.38 | Cc1ncccc1-n1c(=O)n(C)c2cnc3ccc(-c4cnc5c(ccn5C)c4)cc3c21 [Example 2.14, 3-Methyl-1-(2-methyl-pyridin-3-yl)-8-(1-methyl-1H-pyrrolo[2,3-b]pyridin-5-yl)-1,3-dihydro-imidazo[4,5-c]quinolin-2-one]
